In US10618901B2 (GlaxoSmithKline Intellectual Property Development Limited, priority 2014, dated 2020):

Biological target: T1, 6HIS-Tev-LRRK2 (1326-2527) (Homo sapiens, UniProt Q5S007)
T1 construct: A LRRK2 cDNA encoding residues 1326-2527 was received from Dundee University; made in house; host or cells: Spodoptera frugiperda Sf9 (baculovirus, pFB-HTb)
T1 sequence (Q5S007 1326-2527): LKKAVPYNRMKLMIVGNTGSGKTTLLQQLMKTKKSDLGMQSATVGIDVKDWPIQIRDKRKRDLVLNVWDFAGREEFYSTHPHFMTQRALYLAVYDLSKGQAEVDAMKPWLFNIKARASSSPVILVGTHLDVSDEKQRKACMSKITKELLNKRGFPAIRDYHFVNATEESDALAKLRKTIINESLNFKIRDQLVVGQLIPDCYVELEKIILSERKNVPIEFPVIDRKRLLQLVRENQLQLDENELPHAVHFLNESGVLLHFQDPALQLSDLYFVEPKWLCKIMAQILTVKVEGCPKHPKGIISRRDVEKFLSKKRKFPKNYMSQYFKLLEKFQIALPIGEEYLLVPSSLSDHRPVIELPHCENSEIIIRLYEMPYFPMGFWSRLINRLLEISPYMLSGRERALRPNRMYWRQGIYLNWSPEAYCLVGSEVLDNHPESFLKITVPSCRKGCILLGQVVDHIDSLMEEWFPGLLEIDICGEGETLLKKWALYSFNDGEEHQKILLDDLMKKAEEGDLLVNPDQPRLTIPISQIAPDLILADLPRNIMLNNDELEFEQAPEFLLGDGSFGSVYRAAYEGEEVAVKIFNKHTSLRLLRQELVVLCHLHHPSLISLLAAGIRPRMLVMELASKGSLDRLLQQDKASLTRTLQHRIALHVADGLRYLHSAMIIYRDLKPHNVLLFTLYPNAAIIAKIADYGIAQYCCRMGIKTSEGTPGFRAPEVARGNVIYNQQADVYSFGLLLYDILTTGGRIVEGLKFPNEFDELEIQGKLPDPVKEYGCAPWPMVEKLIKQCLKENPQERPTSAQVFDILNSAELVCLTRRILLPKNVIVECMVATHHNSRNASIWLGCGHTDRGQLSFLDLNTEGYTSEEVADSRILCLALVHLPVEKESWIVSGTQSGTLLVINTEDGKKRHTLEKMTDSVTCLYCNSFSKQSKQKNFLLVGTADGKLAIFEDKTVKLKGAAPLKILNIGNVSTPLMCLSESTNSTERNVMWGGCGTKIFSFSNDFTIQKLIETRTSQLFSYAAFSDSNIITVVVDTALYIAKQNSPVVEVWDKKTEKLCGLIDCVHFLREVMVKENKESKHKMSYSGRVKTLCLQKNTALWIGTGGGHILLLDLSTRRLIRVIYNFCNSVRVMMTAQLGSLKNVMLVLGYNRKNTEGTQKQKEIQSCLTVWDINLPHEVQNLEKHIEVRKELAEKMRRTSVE
Assay: Recombinant LRRK2 enzyme peptide substrate TR-FRET assay
Format: biochemical
Details: 60 nM LRRK2 enzyme; 1 uM Biotin-longer LRRKtide; 10 uM ATP
Method: A LRRK2 cDNA encoding residues 1326-2527 was received from Dundee University (described in M. Jaleel et al., 2007, Biochem J, 405: 407-417). This gene fragment was subcloned into pFB-HTb (Invitrogen) using BamHI and NotI restriction sites. The LRRK2 plasmid was recombined into the baculovirus genome according to the BAC-to-BAC protocol described by Invitrogen. Transfection into Spodoptera frugiperda (Sf9) insect cells was performed using Cellfectin (Invitrogen), according to the manufacturer's protocol to generate P1 and P2 baculovirus stocks.
Sf9 cells were grown in HyClone SFX (Thermo Scientific) growth media at 27° C., 80 rpm in shake flask until of a sufficient volume to inoculate a bioreactor. The cells were grown in a 20 liter working volume Wave bioreactor (GE Healthcare) at 27° C., 50% dissolved oxygen and an agitation rate 22 rocks per minute, 10 degree rock angle, 200 ml/min air with a cell concentration of approximately 6×e6 cells/ml. The cells were infected with P2 Baculovirus at a multiplicity of infection (MOI) of 3. The cultivation was continued for a 48 hour expression phase. The infected cells were removed from the growth media by centrifugation at 2500 g using a Sorvall RC 3C Plus centrifuge at 2500 g for 20 minutes. The cell pellet was immediately frozen and subsequently supplied for purification.
A 260 g pellet was allowed to thaw in a water bath at 27° C. with 800 ml lysis buffer/buffer A (50 mm Tris-HCl pH 8.5, 300 mM NaCl, 1 mm DTT, 10% glycerol, 1 ml/L calbiochem complete protease inhibitor cocktail and benzonase (50 ul/800 ml)) before being dounce homogenised on ice using 20 strokes per 100 ml. The suspension was packed in ice and sonicated at 50% amplitude for 3 min 10 sec on/off using a ¾″ probe. The suspension was then centrifuged at 100,000 g for 90 min, at 4° C.
The lysate (700 ml) was decanted from the insoluble pellet and contacted for 3 h at 4 C with 10 ml His bind Ni NTA resin by end over end mixing. The resin was recovered by centrifugation, 3000 g, 5 min at 4 C, and packed in an XK16 column. The column was then washed with 10 column volumes buffer A, 10 column volumes buffer B (buffer A+1M NaCl) and 10 column volumes buffer C (buffer A+20 mM imidazole). The column was then eluted with 15 column volumes buffer D (buffer A+300 mM imidazole) collecting 2 ml fractions. All washes and elution were conducted at 4 ml/min.
Fractions identified by SDS-PAGE as containing protein of interest were pooled and loaded directly onto a 320 ml SEC Superdex 200 pg column that was pre-equilibrated with buffer E (50 mM Tris-HCl pH 8.5, 300 mM NaCl, 10% glycerol, 1 mM DTT). The column was loaded and eluted with 1.2 column volumes buffer E at 2 ml/min collecting 2 ml fractions. Fractions identified by SDS-PAGE as containing protein of interest were tested for activity.
Production of Biotin-Loner LRRKtide
The peptide (biotin-[…]-OH) was assembled at a […] scale using FMOC solid phase peptide synthesis on an ACT 357 MPS automated peptide synthesizer. The resulting crude peptide was cleaved from the resin using a 95:2.5:2.5 mix of trifluoroacetic acid: triisopropylsilane: water. The crude cleaved peptide was purified by reverse phase HPLC, eluting with a 5-35% gradient of 0.1% trifluoroacetic acid/acetonitrile in 0.1% trifluoroacetic acid/water.
Recombinant LRRK2 Enzyme Peptide Substrate TR-FRET Assay
This assay for LRRK2 inhibition is based on the detection of phosphorylation of the peptide ‘longer LRRKtide’ (biotin-[…]-OH) using a time resolved-fluorescence resonance energy transfer (TR-FRET) assay. It uses an antibody labelled europium chelate donor, W-1024 (Eu) and Streptavidin-Surelight APC acceptor (APC). When in close proximity, the excitation of Eu at 330 nm leads to energy transfer to APC with emission of light at 665 nm,
Assay Protocol • 1. A 10 mM test compound was dissolved in 100% DMSO and serially diluted 1 in 4. […]

Row | Molecule | recombinant LRRK2 enzyme peptide substrate TR-FRET assay (pIC50)
1 | trans-2-(4-((4-ethoxy-7H-pyrrolo-[2,3-d]pyrimidin-2-yl)amino)-5-methyl-1H-pyrazol-1-yl)-cyclopentanol [Example E41] | 8
2 | trans-2-(4-((4-ethoxy-7H-pyrrolo-[2,3-d]pyrimidin-2-yl)amino)-5-methyl-1H-pyrazol-1-yl)-cyclopentanol [Example E40] | 8.3

The remaining lines, values ahead:

Row | recombinant LRRK2 enzyme peptide substrate TR-FRET assay (pIC50) | Molecule
3 | 9 | trans-2-(5-chloro-4-((4-ethoxy-7H-pyrrolo-[2,3-d]-pyrimidin-2-yl)amino)-1H-pyrazol-1-yl)-cyclopentanol [Example E37]
4 | 8.1 | cis-3-(4-((4-ethoxy-7H-pyrrolo[2,3-d]pyrimidin-2-yl)amino)-5-methyl-1H-pyrazol-1-yl)cyclopentanol [Example E56]
5 | 9.1 | trans-2-(5-chloro-4-((4-ethoxy-7H-pyrrolo-[2,3-d]-pyrimidin-2-yl)amino)-1H-pyrazol-1-yl)cyclopentanol [Example E38]

Same assay, conditions: 60 nM LRRK2 enzyme; 1 uM Biotin-longer LRRKtide; 10 uM ATP; read-out: recombinant LRRK2 enzyme peptide substrate TR-FRET assay (pIC50) (converted)

Row | Molecule | IC50 [µM]
6 | CCOc1nc(Nc2cnn(C3CCN(C)C3)c2C)nc2[nH]ccc12 (single isomer, unassigned) [Example E14, 4-ethoxy-N-(5-methyl-1-(1-methylpyrrolidin-3-yl)-1H-pyrazol-4-yl)-7H-pyrrolo-[2,3-d]-pyrimidin-2-amine] | 0.0126
7 | CCOc1nc(Nc2cnn(C3CC(O)C3)c2C)nc2[nH]ccc12 (stereo not shown) [Example E52, 3-(4-((4-ethoxy-7H-pyrrolo-[2,3-d]-pyrimidin-2-yl)-amino)-5-methyl-1H-pyrazol-1-yl)cyclo-butanol] | 0.00794

Further lines, results first:

Row | IC50 [µM] | Molecule
8 | 0.00794 | CCOc1nc(Nc2cnn(C3CCOCC3)c2C2CC2)nc2[nH]ccc12 [Example E44, N-(5-cyclopropyl-1-(tetrahydro-2H-pyran-4-yl)-1H-pyrazol-4-yl)-4-ethoxy-7H-pyrrolo-[2,3-d]pyrimidin-2-amine]
9 | 0.01 | CCOc1nc(Nc2cnn(CCN3CCOCC3)c2C)nc2[nH]ccc12 [Example E45, 4-ethoxy-N-(5-methyl-1-(2-morpholinoethyl)-1H-pyrazol-4-yl)-7H-pyrrolo-[2,3-d]pyrimidin-2-amine]
10 | 0.0126 | CCOc1nc(Nc2cnn(CC(C)(C)O)c2C)nc2[nH]ccc12 [Example E3, 1-(4-((4-ethoxy-7H-pyrrolo-[2,3-d]pyrimidin-2-yl)amino)-5-methyl-1H-pyrazol-1-yl)-2-methylpropan-2-ol]

Same assay, conditions: 60 nM LRRK2 enzyme; 10 uM ATP; read-out: pIC50 in the recombinant LRRK2 enzyme peptide substrate TR-FRET assay (converted)

Row | IC50 [µM] | Molecule
11 | ≤ 0.1 | CCOc1nc(Nc2cnn(CCOC)c2Cl)nc2[nH]ccc12 [Example E21, N-(5-chloro-1-(2-methoxyethyl)-1H-pyrazol-4-yl)-4-ethoxy-7H-pyrrolo-[2,3-d]-pyrimidin-2-amine]
12 | ≤ 0.1 | CCOc1nc(Nc2cnn(C3CCCC3(C)O)c2C)nc2[nH]ccc12 (racemic) [Example E70, Trans-2-(4-((4-ethoxy-7H-pyrrolo-[2,3-d]pyrimidin-2-yl)amino)-5-methyl-1H-pyrazol-1-yl)-1-methylcyclopentanol]
13 | ≤ 0.1 | CCOc1nc(Nc2cnn(C3CCN(C4COC4)C3)c2C)nc2[nH]ccc12 (single isomer, unassigned) [Example E67, 4-ethoxy-N-(5-methyl-1-(1-(oxetan-3-yl)-pyrrolidin-3-yl)-1H-pyrazol-4-yl)-7H-pyrrolo-[2,3-d]pyrimidin-2-amine]
